{"source": "patent US20250177537A1", "about": "“AN ANTIBIOTIC, METHOD OF PREPARATION AND METHOD OF TREATMENT THEREOF” (National Taiwan University, priority 2023, published 2025)", "key": {"HEK293T cells": {"test_system": "HEK293T cells", "assay": "cells", "format": "cell-based", "conditions": "24 h", "procedure": "HEK293T cells were cultured in Dulbecco's Modified Eagle's Medium supplemented with 10% fetal bovine serum and 1% Antibiotic antimycotic at 37° C. under humidified atmosphere and 5% CO2. Cytotoxicity assays began by seeding 2×10^4 HEK293T cells per well in a 96-well plate. Cells were given 20 to 24 h to adhere, washed with fresh medium, and then a 2-fold dilution series of the compounds of interest were added. The highest concentration tested for S1, B1, and PBA were 128, 128, and 1,280 μg/mL, respectively; for the B1-plus-PBA series, the PBA concentration was held constant at 5 μg/mL while the B1 concentration varied. After incubation for 24 h, the medium was discarded, the cells rinsed with PBS buffer, and 100 μL of 0.5 mg/mL MTT in […] was added to each well. The plate was incubated for 2 h before discarding the MTT solution. The cells were wash with PBS, and then the resulting purple crystals were dissolved by DMSO (100 μL per well). Absorbance at 570 nm for each well was recorded, and cell viability (%) was calculated as the ratio of the absorbance the compound-treated well vs. the no-compound well. This assay was performed in triplicate."}, "Rhodococcus hoagii": {"test_system": "Rhodococcus hoagii", "assay": "Activity spectrum MIC", "format": "cell-based", "conditions": "PBA 50 μg/mL"}, "Streptococcus species": {"test_system": "Streptococcus species", "assay": "Activity spectrum MIC", "format": "cell-based", "conditions": "PBA 50 μg/mL"}, "Bacillus subtilis [1]": {"test_system": "Bacillus subtilis", "conditions": "for antimicrobial activity: absence of PBA; for PBA dependence of bacterial growth suppression: with vs without PBA; for MIC: no PBA", "procedure": "We then investigated the boron dependence of B1 by determining the MIC of B1 across […] of PBA concentrations (0.5 μg/mL to 100 μg/mL, FIG. 4B)."}, "Pseudomonas aeruginosa": {"test_system": "Pseudomonas aeruginosa", "assay": "Activity spectrum MIC", "format": "cell-based", "conditions": "PBA 50 μg/mL"}, "[2]": {"assay": "31P NMR monitoring of complex formation", "format": "binding", "conditions": "B1/PBA/C10P 1:2:1, 10% D2O", "procedure": "NMR experiments were conducted on a Bruker AVIII 400 (400 MHZ) spectrometer. Chemical shifts (δ) are relative to tetramethylsilane, boric acid, and phosphoric acid for ^1H, ^11B, and ^31P spectra, respectively. The ^11B spectrum of PBA (20 μL, 10.0 mg/mL) in 10% D2O (550 μL) was first obtained. Next, C10P (17 μL, 16 mg/mL) was added directly into the NMR tube, and both the ^11B and ^31P spectra were obtained. B1 (1.2 mg, powder) was then added, followed spectra acquisition. Finally, CaCl2) was added to the solution in the NMR tube, so that the final calcium concentration is ˜5 mM. Note that the ^31P spectrum of C10P alone was collected separately.\nMass spectrometry (MS) and nuclear magnetic resonance (NMR) offered additional evidence of complex formation at the molecular level. High-resolution native electrospray ionization mass spectrometry (HR-NESI-MS) is commonly used to study noncovalent interactions.^[15] Using HR-NESI-MS, we observed the expected m/z for binary, ternary, and quaternary complexes at both the positive and negative modes (FIGS. 5B and 5C, FIGS. 15-18 and FIGS. 23-24). We then performed phosphorous (^31P) and boron (^11B) NMR to monitor the complex formation process. […] When B1 was added to the C10P/PBA mixture, no phosphorous signal could be detected at δ 3 or greater, and two new peaks at δ 0.4 and 0.0 appeared. […]"}, "[3]": {"test_system": "vancomycin-resistant strains (VRE)", "assay": "Activity spectrum MIC", "format": "cell-based, Enterococcus", "conditions": "PBA 50 μg/mL"}, "E. faecalis": {"test_system": "E. faecalis", "assay": "Activity spectrum MIC", "format": "cell-based", "conditions": "PBA 50 μg/mL"}, "B. cereus": {"test_system": "B. cereus", "assay": "Activity spectrum MIC", "format": "cell-based", "conditions": "PBA 50 μg/mL"}, "Escherichia coli": {"test_system": "Escherichia coli", "assay": "Activity spectrum MIC", "format": "cell-based", "conditions": "PBA 50 μg/mL"}, "[4]": {"test_system": "methicillin-resistant strains (MRSA)", "assay": "Activity spectrum MIC", "format": "cell-based, Staphylococcus", "conditions": "PBA 50 μg/mL"}, "Staphylococcus species": {"test_system": "Staphylococcus species", "assay": "Activity spectrum MIC", "format": "cell-based", "conditions": "PBA 50 μg/mL"}, "Bacillus subtilis [5]": {"test_system": "Bacillus subtilis", "assay": "Growth inhibitory zone assay", "format": "cell-based", "conditions": "mixed with B1 at 50 mM each, 12 hours, room temperature", "procedure": "The antimicrobial activities of our peptide (B1) in combination with various boron species were tested by the growth inhibitory zone assay (FIG. 26). B1 was mixed with various boron species at 50 mM each (final concentration). These mixtures were then spotted on a lawn of Bacillus subtilis. After 12 hours of incubation at room temperature, combinations effective at inhibiting bacterial growth would appear as a circular zone."}}, "note": "Where two headings read alike, the source gives them in different places. Bridge positions count the residues as written; N and C are the ends. Square brackets hold non-standard residues; d marks the D form. Peptide text beside a SMILES is read from it. * marks the point of attachment. d(aThr) = C[C@@H](O)[C@@H](N)C(=O)O; Palmitoyl = CCCCCCCCCCCCCCCC(=O)*; dPip = O=C(O)[C@H]1CCCCN1; hSer = N[C@@H](CCO)C(=O)O; Dap = NC[C@H](N)C(=O)O"}
{"smiles": "CCCCCCCCCCCCCCCC(=O)N[C@@H](CO)C(=O)N[C@H]1CNC(=O)[C@@H]2CCCN2C(=O)[C@H]([C@@H](C)CC)NC(=O)[C@@H]([C@@H](C)O)NC(=O)CNC(=O)[C@H](CO)NC(=O)CNC(=O)[C@H](CC(=O)O)NC(=O)CNC(=O)[C@H]2CCCCN2C1=O", "note": "[B1] (Palmitoyl-S[Dap][dPip]GDGSG[d(aThr)]IP; lactam 2-C)", "values": [{"measurement": "IC50", "setting": "HEK293T cells", "result": "greater than 128 μg/mL"}, {"measurement": "growth inhibition", "setting": "Rhodococcus hoagii", "result": "inhibited the growth"}, {"measurement": "growth inhibition", "setting": "Streptococcus species", "result": "inhibited the growth"}, {"measurement": "dependence of antibacterial activity on calcium", "setting": "Bacillus subtilis [1]; LB, PBA 50 μg/mL (0.41 mM), FIG. 4A", "result": "completely independent of calcium"}, {"measurement": "antimicrobial activity", "setting": "Bacillus subtilis [1]; no calcium supplements", "result": "none of them were active"}, {"measurement": "response of antimicrobial activity to varying calcium concentration", "setting": "Bacillus subtilis [1]; fixed PBA 100 μg/mL (0.82 mM)", "result": "no change"}, {"measurement": "antimicrobial activity when no calcium was added", "setting": "Bacillus subtilis [1]; fixed PBA 100 μg/mL (0.82 mM), no calcium added", "result": "equally effective"}, {"measurement": "PBA dependence of bacterial growth suppression", "setting": "Bacillus subtilis [1]", "result": "only able to suppress bacterial growth in the presence of PBA"}, {"measurement": "antibacterial activity", "setting": "Pseudomonas aeruginosa", "result": "no activity"}, {"measurement": "C10P sequestration", "setting": "[2]", "result": "sequestered all C10P"}, {"measurement": "susceptibility", "setting": "[3]", "result": "similarly susceptible"}, {"measurement": "growth inhibition", "setting": "E. faecalis", "result": "inhibited the growth"}, {"measurement": "growth inhibition", "setting": "B. cereus", "result": "inhibited the growth"}, {"measurement": "antibacterial activity", "setting": "Escherichia coli", "result": "no activity"}, {"measurement": "susceptibility", "setting": "[4]", "result": "similarly susceptible"}, {"measurement": "growth inhibition", "setting": "Staphylococcus species", "result": "inhibited the growth"}]}
{"smiles": "OB(O)c1cc(C(F)(F)F)cc(C(F)(F)F)c1", "note": "[3,5-(bis(trifluoromethyl)phenyl) boronic acid]", "values": [{"measurement": "growth inhibitory zone, boron species in combination with B1", "setting": "Bacillus subtilis [5]", "result": "effective"}]}
{"smiles": "O=Cc1ccccc1B(O)O", "note": "[2-formylphenylboronic acid]", "values": [{"measurement": "growth inhibitory zone, boron species in combination with B1", "setting": "Bacillus subtilis [5]", "result": "effective"}]}
{"smiles": "CSc1ccc(B(O)O)cc1", "note": "[4-(methylthio) phenylboronic acid]", "values": [{"measurement": "growth inhibitory zone, boron species in combination with B1", "setting": "Bacillus subtilis [5]", "result": "effective"}]}
{"smiles": "COc1ccc(B(O)O)cc1", "note": "[4-methoxyphenylboronic acid]", "values": [{"measurement": "growth inhibitory zone, boron species in combination with B1", "setting": "Bacillus subtilis [5]", "result": "effective"}]}
{"smiles": "OB(O)c1cccnc1", "note": "[3-pyridylboronic acid]", "values": [{"measurement": "growth inhibitory zone, boron species in combination with B1", "setting": "Bacillus subtilis [5]", "result": "effective"}]}
{"smiles": "Nc1ccc(B(O)O)cc1", "note": "[4-aminophenylboronic acid]", "values": [{"measurement": "growth inhibitory zone, boron species in combination with B1", "setting": "Bacillus subtilis [5]", "result": "effective"}]}
{"smiles": "OB(O)c1cccc(O)c1", "note": "[3-hydroxylphenylboronic acid]", "values": [{"measurement": "growth inhibitory zone, boron species in combination with B1", "setting": "Bacillus subtilis [5]", "result": "effective"}]}
{"smiles": "Cc1cc(C)cc(B(O)O)c1", "note": "[3,5-dimethylphenylboronic acid]", "values": [{"measurement": "growth inhibitory zone, boron species in combination with B1", "setting": "Bacillus subtilis [5]", "result": "effective"}]}
{"smiles": "OB(O)c1ccncc1", "note": "[4-pyridylboronic acid]", "values": [{"measurement": "growth inhibitory zone, boron species in combination with B1", "setting": "Bacillus subtilis [5]", "result": "effective"}]}
{"smiles": "OB(O)c1ccc(F)cc1", "note": "[4-fluorophenylboronic acid]", "values": [{"measurement": "growth inhibitory zone, boron species in combination with B1", "setting": "Bacillus subtilis [5]", "result": "effective"}]}
{"smiles": "Cc1ccc(B(O)O)cc1", "note": "[4-tolylboronic acid]", "values": [{"measurement": "growth inhibitory zone, boron species in combination with B1", "setting": "Bacillus subtilis [5]", "result": "effective"}]}
{"smiles": "OB(O)c1ccccc1", "note": "[PBA, phenylboronic acid, reference compound]", "values": [{"measurement": "IC50", "setting": "HEK293T cells; Homo sapiens, HEK-293T", "result": "> 128", "unit": "µg/mL"}, {"measurement": "growth inhibitory zone, boron species in combination with B1", "setting": "Bacillus subtilis [5]", "result": "effective"}]}
{"smiles": "CCCCCCCCCCCCCCCC(=O)N[C@@H](CO)C(=O)N[C@H]1CNC(=O)[C@@H]2CCCN2C(=O)[C@H]([C@@H](C)CC)NC(=O)[C@@H]([C@@H](C)O)NC(=O)CNC(=O)[C@H](CCO)NC(=O)CNC(=O)[C@H](CC(=O)O)NC(=O)CNC(=O)[C@H]2CCCCN2C1=O", "note": "[B3, Ser-Dap-Pip-Gly-Asp-Gly-Hse-Gly-Thr-Ile-Pro] (Palmitoyl-S[Dap][dPip]GDG[hSer]G[d(aThr)]IP; lactam 2-C)", "values": [{"measurement": "antimicrobial activity", "setting": "Bacillus subtilis [1]; no calcium supplements", "result": "none of them were active"}, {"measurement": "PBA dependence of bacterial growth suppression", "setting": "Bacillus subtilis [1]", "result": "only able to suppress bacterial growth in the presence of PBA"}]}
{"smiles": "OB(O)c1ccc(O)cc1", "note": "[4-hydroxylphenylboronic acid]", "values": [{"measurement": "growth inhibitory zone, boron species in combination with B1", "setting": "Bacillus subtilis [5]", "result": "effective"}]}
{"smiles": "CCCCCCCCCCCCCCCC(=O)N[C@@H](CC(=O)O)C(=O)N[C@H]1CNC(=O)[C@@H]2CCCN2C(=O)[C@H]([C@@H](C)CC)NC(=O)[C@@H]([C@@H](C)O)NC(=O)CNC(=O)[C@H](CC(=O)O)NC(=O)CNC(=O)[C@H](CC(=O)O)NC(=O)CNC(=O)[C@H]2CCCCN2C1=O", "note": "[S1, reference compound] (Palmitoyl-D[Dap][dPip]GDGDG[d(aThr)]IP; lactam 2-C (inferred))", "values": [{"measurement": "potency in the presence of PBA", "setting": "Bacillus subtilis [1]; PBA 100 μg/mL (0.82 mM)", "result": "dramatically decreased"}, {"measurement": "MIC", "setting": "Bacillus subtilis [1]; [Ca2+]=0.5 mM", "result": 16, "unit": "µg/mL"}, {"measurement": "MIC", "setting": "Bacillus subtilis [1]; calcium 5 mM", "result": 4, "unit": "µg/mL"}]}
{"smiles": "N#Cc1ccc(B(O)O)cc1", "note": "[4-cyanophenylboronic acid]", "values": [{"measurement": "growth inhibitory zone, boron species in combination with B1", "setting": "Bacillus subtilis [5]", "result": "effective"}]}
{"smiles": "COC(=O)c1ccc(B(O)O)cc1", "note": "[4-methoxycarbonyl phenylboronic acid]", "values": [{"measurement": "growth inhibitory zone, boron species in combination with B1", "setting": "Bacillus subtilis [5]", "result": "effective"}]}
{"smiles": "CCCCCCCCCCCCCCCC(=O)N[C@@H](CCO)C(=O)N[C@H]1CNC(=O)[C@@H]2CCCN2C(=O)[C@H]([C@@H](C)CC)NC(=O)[C@@H]([C@@H](C)O)NC(=O)CNC(=O)[C@H](CO)NC(=O)CNC(=O)[C@H](CC(=O)O)NC(=O)CNC(=O)[C@H]2CCCCN2C1=O", "note": "[B4] (Palmitoyl-[hSer][Dap][dPip]GDGSG[d(aThr)]IP; lactam 2-C)", "values": [{"measurement": "antimicrobial activity", "setting": "Bacillus subtilis [1]; 5 mM calcium", "result": "weak antimicrobial activity"}, {"measurement": "antimicrobial activity", "setting": "Bacillus subtilis [1]; no calcium supplements", "result": "none of them were active"}, {"measurement": "effect of calcium concentration on MIC", "setting": "Bacillus subtilis [1]; calcium 5 to 0.5 mM, PBA present", "result": "unaffected"}]}
